# According to patent US9371331B2, “Modulators of methyl modifying enzymes, compositions and uses thereof” (Constellation Pharmaceuticals, Inc., priority 2012, dated 2016):
# Like-named read-outs stand apart in the source and are kept apart here.
# Key:
# Y641N EZH2 = Y641N EZH2 (Homo sapiens, UniProt Q15910, Y641N); experiment: Y641N EZH2 assay: as EZH2 assay, with reconstituted H3K27Me2 oligonucleosomes as substrate; type: biochemical
# EZH2 (rPRC2) = EZH2 (rPRC2) (Homo sapiens, UniProt Q15910); experiment: EZH2 assay: rPRC2, biotinylated oligonucleosomes, 3H SAM methyl transfer (FlashPlate scintillation); type: biochemical; settings: biotinylated oligonucleosome substrate
# EZH2 (rPRC2), sequence (Q15910 whole entry): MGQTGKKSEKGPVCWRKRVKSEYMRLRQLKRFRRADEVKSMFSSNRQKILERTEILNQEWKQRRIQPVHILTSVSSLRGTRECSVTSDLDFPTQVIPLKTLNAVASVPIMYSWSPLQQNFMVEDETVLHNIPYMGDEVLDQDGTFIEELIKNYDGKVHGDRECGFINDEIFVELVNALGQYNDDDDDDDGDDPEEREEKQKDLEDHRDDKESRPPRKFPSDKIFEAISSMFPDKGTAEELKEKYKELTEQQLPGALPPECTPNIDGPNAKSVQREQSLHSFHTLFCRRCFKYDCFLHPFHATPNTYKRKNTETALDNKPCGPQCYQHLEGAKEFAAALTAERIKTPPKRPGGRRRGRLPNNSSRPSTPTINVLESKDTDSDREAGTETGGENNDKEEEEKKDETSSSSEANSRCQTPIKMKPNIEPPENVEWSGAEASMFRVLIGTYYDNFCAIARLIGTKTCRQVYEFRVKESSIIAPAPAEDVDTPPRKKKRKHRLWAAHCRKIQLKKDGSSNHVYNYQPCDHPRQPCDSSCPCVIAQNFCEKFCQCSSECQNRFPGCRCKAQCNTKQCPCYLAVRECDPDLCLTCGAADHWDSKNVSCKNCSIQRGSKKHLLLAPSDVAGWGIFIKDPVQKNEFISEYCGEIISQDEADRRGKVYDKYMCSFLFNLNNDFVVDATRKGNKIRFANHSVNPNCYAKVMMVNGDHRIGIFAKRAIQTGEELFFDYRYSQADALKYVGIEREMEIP
# EZH2 (rPRC2), sequence (O75530 whole entry partner): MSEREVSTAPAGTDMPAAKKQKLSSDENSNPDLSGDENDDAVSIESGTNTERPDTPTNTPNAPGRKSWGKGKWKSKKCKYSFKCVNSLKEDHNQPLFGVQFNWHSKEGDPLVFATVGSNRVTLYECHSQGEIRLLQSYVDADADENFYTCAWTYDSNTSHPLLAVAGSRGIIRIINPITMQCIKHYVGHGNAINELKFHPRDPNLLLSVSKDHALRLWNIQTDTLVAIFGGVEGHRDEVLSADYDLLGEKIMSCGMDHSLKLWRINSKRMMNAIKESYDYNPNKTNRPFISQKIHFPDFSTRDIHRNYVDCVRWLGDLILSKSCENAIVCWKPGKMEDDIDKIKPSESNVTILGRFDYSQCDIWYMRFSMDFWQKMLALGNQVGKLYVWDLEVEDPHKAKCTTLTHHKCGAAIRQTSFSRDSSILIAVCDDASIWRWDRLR
# EZH2 (rPRC2), sequence (Q15022 whole entry partner): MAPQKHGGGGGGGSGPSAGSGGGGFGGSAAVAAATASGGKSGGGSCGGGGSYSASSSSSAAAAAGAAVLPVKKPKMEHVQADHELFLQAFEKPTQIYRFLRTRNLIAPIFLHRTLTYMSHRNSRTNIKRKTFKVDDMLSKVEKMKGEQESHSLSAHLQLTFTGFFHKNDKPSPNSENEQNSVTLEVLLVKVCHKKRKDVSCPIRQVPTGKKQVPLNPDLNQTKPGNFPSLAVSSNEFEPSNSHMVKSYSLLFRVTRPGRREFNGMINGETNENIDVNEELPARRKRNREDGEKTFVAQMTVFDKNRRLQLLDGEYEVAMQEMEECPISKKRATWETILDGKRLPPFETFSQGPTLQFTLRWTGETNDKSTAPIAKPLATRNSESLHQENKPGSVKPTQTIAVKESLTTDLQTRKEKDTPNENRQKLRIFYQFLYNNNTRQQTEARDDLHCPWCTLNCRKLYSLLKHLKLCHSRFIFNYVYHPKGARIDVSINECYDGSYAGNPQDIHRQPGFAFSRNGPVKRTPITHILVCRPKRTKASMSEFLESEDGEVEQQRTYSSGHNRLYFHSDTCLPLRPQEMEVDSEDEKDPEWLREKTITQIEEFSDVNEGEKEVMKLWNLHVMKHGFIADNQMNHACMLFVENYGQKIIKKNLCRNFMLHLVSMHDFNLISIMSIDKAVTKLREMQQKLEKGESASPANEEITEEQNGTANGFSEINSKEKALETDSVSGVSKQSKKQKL
# [1] = tested on: H3K27me3 mark in HeLa cells; experiment: H3K27me3 MSD Hela Assay; type: cell-based; settings: read-out: H3K27me3_MSD_HeLa_ (EC50)
# Protocol: Trypsinized HeLa cells were counted and diluted in 10% DMEM (Life Technologies, Cat. #10569) to 5000 cells/75 μL. Seventy-five […] of cells were place in each well of a 96-well flat-bottomed plate and incubated at 37° C. for 4 hours. Twenty-five μL of test compound (at various concentrations) was added to the cells and incubation continued at 37° C. for 96 hours. Media was then removed and the cells rinsed once with ice cold PBS. Forty μL of ice-cold MSD Buffer AT (10 mM HEPES, pH 7.9, 5 mM MgCl2, 0.25M sucrose, Benzonase (1:10000), 1% Triton X-100 supplemented with fresh 1× Protease Inhibitor cocktail and 1 mM 4-(2-Aminoethyl)benzenesulfonyl fluoride hydrochloride (AEBSF)) was added to each well and the plates placed on ice for 30 minutes. Ten μL of 5M NaCl was then added to each well and incubation on ice continued for another 15 minutes. The material in each well was suspended pipetting up and down and then transferred to a new 96 well plate. The emptied wells were rinsed with 150 uL ice-cold 20 mM Tris pH 7.5, 1 mM EDTA, 1 mM EGTA, supplemented with fresh 1× Protease Inhibitor cocktail and 1 mM AEBSF (“NO salt NO detergent buffer) and transferred to the respective wells in the new plate. Three hundred μL of NO Salt NO detergent buffer was then added to each well of lysates and the plates frozen at −80° C.
# On the same day, an appropriate number of MSD standard bind 96-well plates were coated with 30 μL/well of total H3 capture antibody (Millipore. Cat #MAB3422) at 1 μg/mL concentration in PBS. The antibody solution was evenly distributed first by tapping gently on the sides of the plates and then by shaking the plates for a few minutes at 1000 rpm. Antibody coated plates were stored at 4° C. overnight.
# The next day the lysates are thawed to RT. The antibody coated MSD plates are washed 3× with TBS-T (Tris-buffered saline (Fisher Scientific, Cat #BP2471-1)+0.2% Tween-20). One-hundred fifty μL of 5% Blocker A in TBS-T is added to each well. The wells are covered and shaken on a shaker at RT for one hour. The Blocker A step is repeated a second time. After removing the blocker, 25 μL of cell lysate is transferred into each antibody coated well. The plates are shaken for 2 hours at RT, the lysate removed and the plates again washed with Blocker A in TBS-T. Twenty-five μL of appropriate freshly prepared antibody mix (including both primary and secondary antibodies) is added to each well and the plates shaken for 1 hour at RT.
# Both H3 antibodies were obtained from Cell Signalling (Cat #s 4499 and 9733). The goat anti-rabbit antibody was obtained from Meso-Scale Discovery (Cat #R32AB-1).
# The antibody mix was then removed and the wells washed with Blocker A. One hundred-fifty μL of freshly prepared 1×MSD Read Buffer (Meso-Scale Discovery; Cat #R927C-2) was then added to each well and the plates read on a MSD Sector 2400 Plate Reader.
# Data was analyzed using Assay Assistant (Constellation Pharmaceuticals In-house product) and Activity Base (IDBS Ltd, Surrey, UK) template. Data files were imported to Assay Assistant and assay conditions were specified. A unique Analysis ID was created and the data files exported to Activity Base. An analysis template was created on Activity Base to measure dose-dependent inhibition of H3K27me3 mark and cell viability respectively. Readout of DMSO wells were used to normalize the data. Resulting curves were fitted using Activity base software Model 205 (IDBS Ltd. Surrey, UK). The data was checked for quality, validated and integrated in excel format using SARview (IDBS Ltd, Surrey, UK).
# [2] = Y641N EZH2 IC50, Y641N mutant EZH2, H3K27Me2 oligonucleosome substrate
# [3] = EZH2 IC50, wild-type EZH2 (rPRC2)
# Y641N EZH2, sequence (Q15910 whole entry Y641N): as the sequence (Q15910 whole entry) above, with Y641N counted along it
# Y641N EZH2, sequence (O75530 whole entry partner): as the sequence (O75530 whole entry partner) above
# Y641N EZH2, sequence (Q15022 whole entry partner): as the sequence (Q15022 whole entry partner) above
structure (smiles),measurement,setting,value
"Cc1cc(C)c(CNC(=O)c2c(C)n(C(C)c3ccccc3)c3ncccc23)c(O)n1 (racemic) [Compound 146, N-((2-hydroxy-4,6-dimethylpyridin-3-yl)methyl)-2-methyl-1-(1-phenylethyl)-1H-pyrrolo[2,3-b]pyridine-3-carboxamide]",IC50,Y641N EZH2; [2],0.1 to 1 µM
same,IC50,EZH2 (rPRC2); [3],< 0.1 µM
same,EC50,"[1]; Homo sapiens, HeLa, 96 h",0.4 to 2 µM
"Cc1cc(C)c(CNC(=O)c2c(C)n(C(C)c3ccc(F)cc3)c3ccccc23)c(=O)[nH]1 (racemic) [Compound 166, (±)-N-((4,6-dimethyl-2-oxo-1,2-dihydropyridin-3-yl)methyl)-1-(1-(4-fluorophenyl)ethyl)-2-methyl-1H-indole-3-carboxamide]",IC50,Y641N EZH2; [2],0.1 to 1 µM
same,IC50,EZH2 (rPRC2); [3],< 0.1 µM
same,EC50,"[1]; Homo sapiens, HeLa, 96 h",2 to 10 µM
"Cc1cc(C)c(CNC(=O)c2c(C)n(C(C)c3ccc(Cl)cc3)c3ccccc23)c(=O)[nH]1 (racemic) [Compound 170, (±)-1-(1-(4-chlorophenyl)ethyl)-N-((2-hydroxy-4,6-dimethylpyridin-3-yl)methyl)-2-methyl-1H-indole-3-carboxamide]",IC50,Y641N EZH2; [2],0.1 to 1 µM
same,IC50,EZH2 (rPRC2); [3],< 0.1 µM
same,EC50,"[1]; Homo sapiens, HeLa, 96 h",2 to 10 µM
"Cc1cc(C)c(CNC(=O)c2c(C)n(C(C)c3cccc(Br)c3)c3ccccc23)c(=O)[nH]1 (racemic) [Compound 171, (±)-1-(1-(3-bromophenyl)ethyl)-N-((4,6-dimethyl-2-oxo-1,2-dihydropyridin-3-yl)methyl)-2-methyl-1H-indole-3-carboxamide]",IC50,Y641N EZH2; [2],< 0.1 µM
same,IC50,EZH2 (rPRC2); [3],< 0.1 µM
same,EC50,"[1]; Homo sapiens, HeLa, 96 h",2 to 10 µM
"Cc1ccc(C(C)n2c(C)c(C(=O)NCc3c(C)cc(C)[nH]c3=O)c3ccccc32)cc1 (racemic) [Compound 172, (±)-N-((4,6-dimethyl-2-oxo-1,2-dihydropyridin-3-yl)methyl)-2-methyl-1-(1-(p-tolyl)ethyl)-1H-indole-3-carboxamide]",IC50,Y641N EZH2; [2],0.1 to 1 µM
same,IC50,EZH2 (rPRC2); [3],< 0.1 µM
same,EC50,"[1]; Homo sapiens, HeLa, 96 h",2 to 10 µM
"Cc1cc(C)c(CNC(=O)c2c(C)n(C(C)c3cccc(Cl)c3)c3ccccc23)c(=O)[nH]1 (racemic) [Compound 181, (±)-1-(1-(3-chlorophenyl)ethyl)-N-((4,6-dimethyl-2-oxo-1,2-dihydropyridin-3-yl)methyl)-2-methyl-1H-indole-3-carboxamide]",IC50,Y641N EZH2; [2],< 0.1 µM
same,IC50,EZH2 (rPRC2); [3],< 0.1 µM
same,EC50,"[1]; Homo sapiens, HeLa, 96 h",0.4 to 2 µM
"Cc1cc(C)c(COC(=O)c2c(C)n(C3CCc4ccccc43)c3ncccc23)c(=O)[nH]1 (racemic) [Compound 201, (±)-(4,6-dimethyl-2-oxo-1,2-dihydropyridin-3-yl)methyl 1-(2,3-dihydro-1H-inden-1-yl)-2-methyl-1H-pyrrolo[2,3-b]pyridine-3-carboxylate]",IC50,"Y641N EZH2; Y641N mutant EZH2, H3K27Me2 oligonucleosome substrate, read-out: Y641N EZH2 IC50",0.1 to 1 µM
same,IC50,"EZH2 (rPRC2); wild-type EZH2 (rPRC2), read-out: EZH2 IC50",< 0.1 µM
same,EC50,"[1]; Homo sapiens, HeLa cells, MSD, 96 hours",0.4 to 2 µM
"Cc1cc(C)c(CNC(=O)c2c(C)n(C(C)c3ccccc3)c3cnccc23)c(=O)[nH]1 (racemic) [Compound 203, (±)-N-((4,6-dimethyl-2-oxo-1,2-dihydropyridin-3-yl)methyl)-2-methyl-1-(1-phenylethyl)-1H-pyrrolo[2,3-c]pyridine-3-carboxamide]",IC50,Y641N EZH2; [2],0.1 to 1 µM
same,IC50,EZH2 (rPRC2); [3],< 0.1 µM
same,EC50,"[1]; Homo sapiens, HeLa, 96 h",2 to 10 µM
"COCC(C)n1c(C)c(C(=O)NCc2c(OC)cc(C)[nH]c2=O)c2cccnc21 (racemic) [Compound 204, (±)-N-((4-methoxy-6-methyl-2-oxo-1,2-dihydropyridin-3-yl)methyl)-1-(1-methoxypropan-2-yl)-2-methyl-1H-pyrrolo[2,3-b]pyridine-3-carboxamide]",IC50,Y641N EZH2; [2],0.1 to 1 µM
same,IC50,EZH2 (rPRC2); [3],< 0.1 µM
same,EC50,"[1]; Homo sapiens, HeLa, 96 h",0.4 to 2 µM
"COc1cc(C)[nH]c(=O)c1CNC(=O)c1c(C)n(C(C)c2ccccc2)c2cnccc12 (single isomer, unassigned) [Compound 259, (R or S)-N-((4-methoxy-6-methyl-2-oxo-1,2-dihydropyridin-3-yl)rnethyl)-2-methyl-1-(1-phenylethyl)-1H-pyrrolo[2,3-c]pyridine-3-carboxamide]",IC50,"EZH2 (rPRC2); read-out: EZH2 IC50, wild-type EZH2 (rPRC2)",< 0.1 µM
same,EC50,"[1]; HeLa cells, MSD, 96 hours",0.4 to 2 µM
"CCC(C)n1c(C)c(C(=O)NCc2c(C)cc(C)nc2O)c2ccccc21 (stereo not drawn) [Compound 123, 1-sec-butyl-N-((2-hydroxy-4,6-dimethylpyridin-3-yl)methyl)-2-methyl-1H-indole-3-carboxamide]",EC50,"[1]; Homo sapiens, HeLa, 96 h",0.4 to 2 µM
